Legend:
[1] = in vivo; cited from earlier work
Aedes aegypti [2] = conditions: DEET at a dose of 23.8 percent, laboratory; cited from earlier work
mosquitoes = conditions: cited from earlier work
Aedes aegypti [3] = assay: Repellent efficacy test on hairless mouse coated with test product, exposed to female mosquitoes; type: in vivo; conditions: concentration of 3% or even less of synthetic evodone
Protocol: In this respect, the invention is illustrated by the following efficacy tests, carried out in the laboratory, where the formulas are not degraded through the effects of abrasion, exudation, sunlight, temperature or even swimming in the sea. […] The tests are carried out on female Aedes aegypti mosquitoes aged 6 to 10 days having undergone a prior 24-hour period of fasting (no blood meal) in order to increase their aggressiveness. […] 30 minutes after product application, the mouse is introduced into a cage containing approximately 200 female mosquitoes (prior removal of the males using a food gradient). The test lasts 5 minutes and during this period the number of mosquitoes having landed on the mouse (“landing” effect: number of mosquitoes that land on the treated area and leave without biting) and the number of effective bites, are recorded. The test is stopped after 5 effective bites (“stop” in the Tables below). […] Based on the outcome of the first repetition, repetitions are performed at time intervals of 30 minutes in order to provide a more accurate limit for the duration of protection. During and between the runs, the mice are maintained in a “tropical” like atmosphere under controlled conditions at 27+/−1° C. and 70+/−5% relative humidity. The cages are changed upon each unit test and placed 3 meters apart. […]

For CCN(CC)C(=O)c1cccc(C)c1 [DEET, N,N-diethyl-3-methylbenzamide], the “share of a dose absorbed through the skin” value [1] is listed as 30% and the protection period (Aedes aegypti [2]) is listed as “more than 5 hours”.
For p menthane 3.8 diol [citriodiol], the “maximum persistence of protection” value (mosquitoes) is listed as ≤ 6 h.
With Cc1coc2c1C(=O)C[C@@H](C)C2 [evodone, (6S)3-6 dimethyl 6,7 dihydro 5H benzofuran-4-one] the “repellent efficacy compared with DEET” value (Aedes aegypti [3]) was “as effective as a concentration of 30% of DEET”.
In the case of CCC(C)OC(=O)N1CCCCC1CCO (centres unmarked) [icaridin, 1-methylpropylester], the “concentration with efficacy comparable to that of 30% DEET” value (mosquitoes) is listed as 19.2%.

From patent publication US10258036B2, “Extract of Euodia suaveolens Scheff, repellent compositions and use thereof” (CHARABOT, priority 2009, dated 2019)
